The source of these data is patent US6677309B1, “Anti-cancer drug aldehyde conjugate drugs with enhanced cytotoxicity compounds, compositions and methods” (University Technology Corporation, priority 1997, dated 2004).

pIC50: −log10 of the molar value.

Data set [1] is described as follows: Stability in DMSO and DMSO/water, NMR or HPLC. The class given is physicochemical. The method, then: Crystalline dimeric formaldehyde conjugate of daunorubicin (2.8 mg, 2.6 μmol) was dissolved in 500 μL of DMSO-d6 (stored over 3 A molecular sieves) and analyzed by 400 MHz, ^1H NMR. […] Upon addition of 25 μL of D2O to the 500 μL DMSO-d6 sample, the dimeric formaldehyde conjugate of daunorubicin reacted over a 24 h period to form an equilibrium mixture consisting of 67% dimeric formaldehyde conjugate of daunorubicin and 32% of an intermediate. Because of the complexity of the spectrum, a structure could not be assigned to the intermediate; however, the intermediate appeared to have an oxazolidine ring. Upon addition of 3 equiv of hydrochloric acid in 130 μL of deuterium oxide, hydrolysis to daunorubicin-HCl was complete. The hydrochloric acid solution was prepared by the addition of 10 μL of concentrated HCl to 990 μL of D2O. The formaldehyde released from the dimeric formaldehyde conjugate of daunorubicin was detected as its hydrate. The final product was identified as daunorubicin by comparison of the NMR spectrum with that of a sample of daunorubicin plus 3 equiv of HCl. Further, the final product was isolated by removal of all volatile components under vacuum (0.1 Torr), and its ^1H NMR spectrum was identical to that of daunorubicin-HCl.
Amorphous dimeric formaldehyde conjugate of daunorubicin, when worked up in methylene chloride, was stable in DMSO for at least 4 days. It hydrolyzed with added D2O and hydrochloric acid in a manner similar to that of the crystalline material. When worked up in chloroform, amorphous dimeric formaldehyde conjugate of daunorubicin had less stability in DMSO, presumably due to traces of HCl from the chloroform.
A 1.3 mg sample of N-acetyl-3′-N,4′-O-methylenedaunorubicin was dissolved in […] of DMSO and analyzed over time by HPLC. […] At this time, […] of water was added to the DMSO/N-acetyl monomeric formaldehyde conjugate of daunorubicin solution, establishing a 50:50 DMSO:water mixture (v/v). In this solution, the N-acetyl-3′-N,4′-O-methylenedaunorubicin remained 91% intact (9% degradation to daunorubicin) over a period of 6 days, based upon the HPLC analysis.
A pH 6 triethyl ammonium acetate solution containing 13.1 μmol of epidoxorubicin-HCl and 6.6 mmol of […] was allowed to react in the dark at 25° C. for 30 min. The mixture was then extracted with chloroform with vigorous stirring for 20 min. The chloroform solution was dried over sodium sulfate and the chloroform removed by rotary evaporation. The resulting dry solid was redissolved in 1.0 mL of chloroform. To this was added 10 mL of n-hexane. After 2 days, a large amount of precipitate had formed, which was washed with 3×5 mL of n-hexane, followed by 4×1 mL of water.
The sample was maintained at ambient temperature for 2 h; after this period no change in the spectrum was observed. […] A stock 122 mM solution of HCl in D2O was prepared by adding concentrated hydrochloric acid to D2O. […] Complete hydrolysis occurred upon addition of ca. 2-3 equiv of HCl. A similar experiment was performed using HCl in H2O. […] This solution was incubated at 37° C. for 24 h prior to NMR analysis.

The next data set has as its system MCF-7/ADR cells. As to the kind of experiment: In vitro cytotoxicity, colony formation by crystal violet assay, MCF-7/ADR. The conditions noted are these: for fold higher cytotoxicity against MCF-7/ADR cells relative to the parent drug: relative to the respective parent drug. As for the experimental part:
The term IC50 as used herein refers to the concentration of drug which inhibits cell growth by 50%, i.e., 50% of cells are viable at the IC50 concentration relative to a no-drug control.
Cells were incubated with drug for 3 h in RPMI (Roswell Park Memorial Institute) 1640 media containing 10% fetal bovine serum and 1% DMSO. Plates, were developed using the crystal violet assay. […] In all cases percent survival was determined by the extent of colony formation six days after drug treatment.
All tissue culture materials were obtained from Gibco Life Technologies (Grand Island, N.Y.) unless otherwise stated. MCF-7 breast cancer cells were obtained from American Type Culture Collection (Rockville, Md.). […] Both cell lines were maintained in vitro by serial culture in phenol red-free RPMI Media 1640 supplemented with 10% fetal bovine serum (Gemini Bio-Products, Calbasas, Calif.), L-glutamine (2 mM), HEPES buffer (10 mM), penicillin (100 units/mL), and streptomycin (100 μg/mL). […] Cells were maintained at 37° C. in a humidified atmosphere of 5% CO2 and 95% air.
Cells were dissociated with trypsin-EDTA, counted, and suspended in growth media to a concentration of 5×10^3 cells/mL. Cell suspensions were dispensed in 200 μL aliquots into 96-well tissue culture plates. Plates were then incubated for 24 h at 37° C. in a humidified atmosphere of 5% CO2 and 95% air. The media was replaced with 180 μL of growth media prior to addition of the cytotoxic agents.
Concentrations were then corrected by measuring the solution absorbance at 480 nm (ε=11,500/mole anthracycline). The solutions were then serially diluted in DMSO to give a series of 100× working concentration solutions. For each concentration, the 100× solution was diluted 1:10 in serum-free RPMI Media 1640. 20 μL of the resulting […] solution was immediately added to the appropriate lane. Additionally, one lane was treated with 20 μL of 10% DMSO in serum-free RPMI (no drug) and one lane replaced with 200 μL of 1.5 M Tris buffer (no cells). The cells were incubated at 37° C. for 3 h. The drug solutions were removed and 200 μL of fresh growth media was added to each well.
The extent of colony formation was determined by use of a crystal violet staining assay (Gilles, R. J. et al. (1986), “Determination of cell number in monolayer cultures,” Anal. Biochem. 159:109-113; Reile, H. et al. (1990), “Computerized determination of growth kinetic curves and doubling times from cells in microcultures,” Anal. Biochem. 187:262-267). […] The cells were then stained with 75 μL of 0.1% crystal violet in deionized water for 30 min. […] The plates were blotted dry and 200 μL of 70% ethanol in water was added to each well to solublize the dye. The plates were stored at 4° C. until solubilization was complete (about 4 h). The optical density of each well was measured on an ELISA plate reader at 588 nm. Relative colony sizes were determined by comparison of the drug treated lanes to the control lanes.
MCF-7 breast cancer cells were obtained from American Type Culture Collection (Rockville, Md.). MCF-7/ADR adriamycin resistant breast cancer cells were a gift of Dr. William W. Wells (Michigan State University). Both cell lines were maintained in vitro by serial culture in phenol red-free RPMI Media 1640 supplemented with 10% fetal bovine serum (Gemini Bio-Products, Calbasas, Calif.), L-glutamine (2 mM), HEPES buffer ([…]), penicillin (100 units/mL), and streptomycin (100 μg/mL). […] Cells were maintained at 37° C. in a humidified atmosphere of 5% CO2 and 95% air.
These were then diluted 10× with autoclaved Millipore water.

Take `COc1cccc2c1C(=O)c1c(O)c3c(c(O)c1C2=O)C[C@@](O)(C(C)=O)C[C@@H]3O[C@H]1C[C@H]2[C@H](OCN2CN2CO[C@@H]3[C@H](C)O[C@@H](O[C@H]4C[C@](O)(C(C)=O)Cc5c(O)c6c(c(O)c54)C(=O)c4c(OC)cccc4C6=O)C[C@@H]32)[C@H](C)O1` [DAUNF, bis(3′-N-(3′-N,4′-O-methylenedaunorubicinyl))methane]: the “share of conjugate in the equilibrium mixture” value in data set [1] (25 μL D2O added to 500 μL DMSO-d6, over 24 h, NMR) amounted to 67%. Further, the “time stable in DMSO” value in data set [1] (crystalline material in DMSO-d6 stored over molecular sieves, 1H NMR) is on record as “at least 14 h”; in data set [1] (dry DMSO / DMSO-d6, 1H NMR), “at least 4 days”. Further, in the data set on MCF-7/ADR cells (read-out: IC50 Values, MCF-7-ADR, 3 h drug incubation in RPMI 1640, 10% fetal bovine serum, 1% DMSO, colony formation six days after treatment, fresh drug solution), the pIC50 (commonly −log10 of the IC50, conventionally taken in molar units) is 8.30. In addition, the “fold higher cytotoxicity against MCF-7/ADR cells relative to the parent drug” value in the data set with MCF-7/ADR cells is given as 200 fold.
Take `COc1cccc2c1C(=O)c1c(O)c3c(c(O)c1C2=O)CC(O)(C(=O)CO)CC3OC1CC2C(OCN3CN2COC2C(C)OC(OC4C[C@](O)(C(=O)CO)Cc5c(O)c6c(c(O)c54)C(=O)c4c(OC)cccc4C6=O)CC23)C(C)O1` (stereo partly drawn) [EPIF]: in data set [1] (dry DMSO / DMSO-d6, 1H NMR), the “time stable in DMSO” value is given as “at least 4 days”. The “IC50 fold higher than a fresh solution” value with MCF-7/ADR cells (MCF-7/ADR, after 20 h in 90% H2O/10% DMSO at 37° C. or 20 h in DMSO at ambient temperature) was found to be 5 fold. For the same molecule, in the data set with MCF-7/ADR cells (MCF-7/ADR, hydrolysed equilibrium mixture), the “fold more toxic to resistant cells with respect to epidoxorubicin, conjugate in equilibrium with its hydrolysis products” value is listed as “greater than 25 fold”. For the same molecule, the “fold higher cytotoxicity against MCF-7/ADR cells relative to the parent drug” value in the data set on MCF-7/ADR cells was “greater than 120 fold”.
